Measurements as given in publication PMC12573178, “Substrate-Guided Development of HDAC11-Selective Inhibitors Featuring α‑Amino Amide Zinc-Binding Groups” (ACS Omega, 2025).

Target: T1, SIRT3 (Homo sapiens, UniProt Q9NTG7)
T1 sequence (Q9NTG7 1-399): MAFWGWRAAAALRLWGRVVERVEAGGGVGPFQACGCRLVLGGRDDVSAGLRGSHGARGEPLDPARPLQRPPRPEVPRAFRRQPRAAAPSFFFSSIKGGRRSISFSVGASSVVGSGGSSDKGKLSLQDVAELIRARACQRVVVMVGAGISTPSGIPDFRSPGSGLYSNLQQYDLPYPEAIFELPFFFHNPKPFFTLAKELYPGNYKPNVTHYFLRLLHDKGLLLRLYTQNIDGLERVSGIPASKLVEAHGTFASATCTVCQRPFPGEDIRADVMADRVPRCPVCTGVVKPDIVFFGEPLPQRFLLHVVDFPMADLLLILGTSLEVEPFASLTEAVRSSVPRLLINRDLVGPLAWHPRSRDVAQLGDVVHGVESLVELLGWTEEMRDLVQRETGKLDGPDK
Assay: SIRT3 discontinuous demyristoylation inhibition assay
Type: biochemical
Description: Inhibition of the enzymatic activity of HDACs was performed continuously for HDAC8, HDAC11, and SIRT2 and discontinuously for SIRT2, 3, and 6 using adequate substrates as described previously. , Experimental details are given in the Supporting Information.
A. HDAC and SIRT deacylase activity assays […]
140 mM NaCl, 10 mM MgCl 2, 1 mM tris(2-carboxyethyl)phosphine (TCEP), and 0.2 mg/ml BSA, pH 7.4 adjusted with NaOH), HDAC11 buffer (20 mM HEPES, 70 µM TCEP and 2 mg/ml BSA, pH 7.4 adjusted with NaOH) or SIRT buffer (20 mM Tris, 150 mM NaCl, 5 mM MgCl2 and 2 mg/ml BSA pH 7.8 adjusted with HCl), respectively. The thiotrifluoracetylated substrate Abz-SRGGK(thio-TFA)FFRR-NH2 (50 µM) […]
Aun is N-(2-aminobenzoyl)-11-aminoundecanoyl, was used for HDAC11 and Ac-EALPKK(Myr)T-C(Fluorescein)-G-NH2 (40 nM) was used for SIRT2 1-3. […]
(substrate, DMSO, and Buffer) controls were included in every measurement and were set as 100% and 0%, respectively. The measured values were normalized accordingly. […]
Reactions were stopped after 20 min by adding a constant volume of reaction mixture to stop solution (5 % acetonitrile (ACN) (v/v) and 1 % trifluoroacetic acid (TFA) (v/v) in dd. H 2O). The samples were analysed using HPLC-UV/VIS at λ Abs = 220 nm, λ Ex = 320 nm und λ Em = 420 nm. […]
100 nM, SIRT3: 200 nM, SIRT6: 500 nM). […] The samples were analysed using HPLC-UV/VIS at λ Abs = 360 nm. […]

- IC50: > 100 µM
- inhibition at 50 µM (50 μM 31): 1.6%
Structure (SMILES): CCCCCCCCCCCCSC[C@@H](N)C(=O)NCCCC[C@@H]1NC(=O)[C@H](CCC(N)=O)NC1=O [Compound 31]
